# Results as given in US6699894B1, “Methods for treatment of inflammatory bowel disease” (OSI Pharmaceuticals, Inc., priority 2001, dated 2004).
# Where a name gives a salt, the structure may show the parent alone. Read-outs that look alike come from different tables or passages of the source.
# Columns and labels:
# [1] = biological target: T1, GST-cGB-PDE5 fusion protein (Homo sapiens, UniProt O76074); test: cGMP binding assay with GST-cGB-PDE5 fusion protein; conditions: for competition with cGMP binding at high concentration: test substance 100 μM vs cGMP 2 μM
# T1 construct: made in house; host or cells: E. coli BL21 (DE3)
# Method: 5′-3′, Inc. kits for total RNA followed by oligo (dT) column purification of mRNA are used with HT-29 cells. […] It is then cloned into pGEX-5X-3 glutathione-S-transferase (GST) fusion vector (Pharmacia Biotech) with tac promoter, and EcoRI and XhoI cut sites. The fusion vector is then transfected into E. Coli BL21 (DE3) bacteria (Invitrogen). The transfected BL21 bacteria is grown to log phase, and then IPTG is added as an inducer. The induction is carried at 20° C. for 24 hrs. The bacteria are harvested and lysed. The soluble cell lysate is incubated with GSH conjugated Sepharose 4B (GSH-Sepharose 4B). The GST-cGB-PDE5 fusion protein can bind to the GSH-Sepharose beads, and the other proteins are washed off from beads with excessive cold PBS.
# Then, the mixture is transferred to Brandel MB-24 cell harvester with GF/B as the filter membrane followed by 2 washes with 10 mL of cold 5 mM potassium buffer(pH 6.8). The membranes are then cut out and transferred to scintillation vials followed by the addition of 1 mL of H2O and 6 mL of Ready Safe™ liquid scintillation cocktail to each vial. The vials are counted on a Beckman LS 6500 scintillation counter.
# The quenching by filter membrane or other debris are also calibrated.
# PDE1 = test: PDE inhibition: PDE1; type: biochemical; conditions: similar protocols
# PDE4 = test: PDE inhibition: PDE4; type: biochemical; conditions: similar protocols
# PDE 5 = PDE 5 (Homo sapiens, UniProt O76074); test: Competitive binding (with cGMP) to PDE5
# rats [2] = test: Acute toxicity study in rats; conditions: rat, in vivo
# dogs [3] = test: Acute and seven-dose toxicity in dogs (capsules); conditions: dog, in vivo
# Method: Therefore, these dogs were subsequently administered seven consecutive doses of 1000 mg/kg/day.
# rats [4] = test: Seven-day dose-range finding study in rats; type: in vivo; conditions: 7 days
# rats [5] = test: 28-day study in rats; type: in vivo
# Method: A 28-day study in rats was also carried out at 0, 50, 500 and 2000 mg/kg/day.
# rats [6] = test: 91-day long-term safety assessment study in rats; type: in vivo
# From the text: These changes were not associated with any gross clinical abnormality.
# dogs [7] = test: 91-day oral study in dogs; type: in vivo
# patients = test: Single, escalating dose human clinical safety trial; type: in vivo; conditions: oral, 50 mg BID, 100 mg BID, 200 mg BID and 400 mg BID
# dogs with IBD = test: Efficacy trial in dogs with IBD; type: in vivo
# From the text: IBD in humans is quite similar to IBD in dogs. […] In fact, the IBD treatments used in dogs are very similar to those used in humans, and the success rates are similarly disappointing. The number of dogs with IBD is estimated to be in the millions in the U.S. Feline IBD is also quite common.
# The pre-drug history and results achieved with the drug in each dog are as follows: […]
# native bovine PDE5 = native bovine PDE5 (Bos taurus, UniProt Q28156); conditions: read-out: Kd of cGMP binding to native bovine PDE5; cited from earlier work
# [8] = 28 days, 50, 500 and 2000 mg/kg/day
# [9] = 91 days, highest dose group (300 mg/kg/day)
structure (smiles),measurement,setting,value
CCCCOC1C2OP(=O)(O)OCC2OC1n1cnc2c(=O)[nH]c(N)nc21 (stereo not shown) [2′-O-butyl-cGMP],competition with cGMP in binding of GST-cGB-PDE5,"[1]; 3H-cGMP 2 μM, 22° C., 1 hour",did not compete
O=C([O-])C1CCN(c2nc(NCc3ccc4c(c3)OCO4)c3cc(Cl)ccc3n2)CC1.[Na+] [Example E4021],competition with cGMP in binding of GST-cGB-PDE5,"[1]; 3H-cGMP 2 μM, 22° C., 1 hour",None of the PDE5 inhibitors showed any competition with cGMP
CCCOc1ccccc1-c1nc2nn[nH]c2c(=O)[nH]1 [zaprinast],competition with cGMP in binding of GST-cGB-PDE5,"[1]; 3H-cGMP 2 μM, 22° C., 1 hour",None of the PDE5 inhibitors showed any competition with cGMP
Nc1ncnc2c1ncn2[C@@H]1O[C@@H]2COP(=O)(O)O[C@H]2[C@H]1O [Cyclic AMP],competition with cGMP in binding of GST-cGB-PDE5,[1],did not compete
Nc1ccn([C@@H]2O[C@@H]3COP(=O)(O)O[C@H]3[C@H]2O)c(=O)n1 [cCMP],competition with cGMP in binding of GST-cGB-PDE5,"[1]; 3H-cGMP 2 μM, 22° C., 1 hour",did not compete
CCCCOC1C2OP(=O)(O)OCC2OC1n1cnc2c(N)ncnc21 (stereo not shown) [2′-O-butyl-cAMP],competition with cGMP in binding of GST-cGB-PDE5,"[1]; 3H-cGMP 2 μM, 22° C., 1 hour",did not compete
"CC1=C(CC(=O)NCc2ccccc2)c2cc(F)ccc2/C1=C\c1ccncc1 [Example 38, (Z)-5-Fluoro-2-Methyl-(4-Pyridylidene)-3-(N-Benzyl)Indenylacetamide Hydrochloride]",IC50,PDE1,3000 nM
same,IC50,PDE4,6000 nM
same,binding to the cGMP binding sites of GST-cGB-PDE5 / PDE5,[1],does not bind to the cGMP-binding site of PDE5
same,competitive (with cGMP) binding to PDE 5,PDE 5,does competitively (with cGMP) bind to PDE 5
same,acute toxicity on a single-dose basis,rats [2],not acutely toxic
same,body weight gain,"rats [2]; ip, 1000 mg/kg",reduced body weight gain
same,necropsy finding,"rats [2]; ip, 1000 mg/kg",mesenteric adhesions seen in some animals
same,body weight gains,"rats [2]; po, 2000 mg/kg",slightly reduced
same,signs of toxicity,dogs [3]; 1000 mg/kg,no signs of toxicity
same,signs of drug-related effects,dogs [3]; 1000 mg/kg/day,At no time in either dosing phase were any obvious signs of drug-related effects observed
same,signs of toxicity,rats [4]; 50 mg/kg/day,no observable signs of toxicity
same,treatment-related effects,rats [4]; 500 mg/kg/day,increase in absolute and relative liver weights in female rats
same,treatment-related effects,rats [4]; 2000 mg/kg/day,"labored breathing and/or abnormal respiratory sounds, decreased weights gains and food consumption in male rats, and increased liver weights in female rats"
same,"hematology, blood chemistry, microscopic pathology","rats [4]; any dose level (50, 500, 2000 mg/kg/day)",No hematological or blood chemistry changes nor any microscopic pathology changes
same,macroscopic tissue changes at necropsy,rats [5]; 28 days,No macroscopic tissue changes
same,liver weights,"rats [5]; 28 days, 2000 mg/kg/day",statistically significant increase
same,thyroid weights,"rats [5]; 28 days, 2000 mg/kg/day",statistically significant increases
same,"body weight changes, ophthalmoscopic examinations, hematological and blood chemistry values and urinalysis",rats [5]; [8],unremarkable
same,clinical observations,rats [5]; [8],no abnormal clinical observations
same,liver and thyroid weights at the lower doses,"rats [5]; 28 days, 50 and 500 mg/kg/day",not statistically significant
same,histopathological evaluation of tissues,"rats [5]; 28 days, generally limited to a small number of animals at 2000 mg/kg/day, one female at 500 mg/kg/day","traces of follicular cell hypertrophy, increased numbers of mitotic figures (suggestive of possible cell proliferation) in the thyroid gland and mild centrilobular hypertrophy in the liver"
same,clinical biochemistry and hematology,rats [6]; 91 days,no changes in clinical biochemistry and hematology were evident
same,"microscopic finding, follicular cells","rats [6]; 91 days, 500 mg/kg/day",follicular cell hypertrophy
same,"microscopic finding, kidneys","rats [6]; 91 days, 200 and 500 mg/kg/day",increase in accumulation of hyalin droplets in the kidneys
same,"microscopic finding, liver","rats [6]; 91 days, 200 and 500 mg/kg/day",slight hepatocellular hypertrophy
same,liver and thyroid/parathyroid weights,"rats [6]; 91 days, males and females at 200 and 500 mg/kg/day",dose-related trend to increased liver and thyroid/parathyroid weights
same,toxicological effects overall,"rats [6]; oral, 91 consecutive days, 50, 200 and 500 mg/kg/day",did not produce any major toxicological effects
same,tolerability,dogs [7]; 91 days,well tolerated
same,feces observation,"dogs [7]; 91 days, 150 and 300 mg/kg/day",Orange discoloration of the feces
same,microscopic alterations of liver,"dogs [7]; 91 days, highest dose group",no microscopic alterations
same,body weights,dogs [7]; [9],Slightly lowered body weights
same,liver weights,dogs [7]; [9],increased liver weights
same,toxicological effects overall,"dogs [7]; oral, 91 consecutive days, 50, 150 and 300 mg/kg/day",no toxicological effects
same,route of elimination (suggested by feces colour),"dogs [7]; oral, 91 days",most of Compound 38 was being eliminated via the feces
same,side effects,patients,no significant side effects at any dose
same,"body weight regained, Dog #1","dogs with IBD; Dog #1, 12 weeks of 800 mg BID",at least 13 lbs.
same,"histopathological change, Dog #1","dogs with IBD; Dog #1, 12 weeks of 800 mg BID",significant histopathological improvement
same,"body weight, Dog #1","dogs with IBD; Dog #1, Month 8 (start), after 12 weeks of treatment, 46 lbs at Month 3 (middle)",60 lbs
same,"small intestine histopathology after treatment, Dog #1","dogs with IBD; Dog #1, after 12 weeks of treatment, FIGS. 2 and 4",closely mimics normal canine small intestinal tissue
same,"blood protein levels, Dog #2","dogs with IBD; Dog #2, after 7 weeks 400 mg BID",returned to normal
same,"blood protein levels, Dog #3","dogs with IBD; Dog #3, 400 mg BID",gradually returned to within normal limits
same,"stool, Dog #4","dogs with IBD; Dog #4, after 7 weeks 800 mg BID, owner report",normal size stool with no mucus
same,"outcome, Dog #6","dogs with IBD; after 7 weeks 800 mg BID, late stage abdominal neoplastic disease discovered post-mortem",Euthanized
same,"clinical status, Dog #5","dogs with IBD; chronic IBD, 7 weeks 800 mg BID without conventional IBD treatments",significantly improved and completely normal
same,"clinical status, Dog #4","dogs with IBD; chronic IBD, conventional therapy withdrawn, 7 weeks 800 mg BID",completely clinically normal with no signs of IBD
same,"stools, Dog #7","dogs with IBD; chronic IBD, tylosin stopped, after one week on drug, then withdrawn by owner",normal stools began to be formed
same,"clinical status, Dog #2","dogs with IBD; moderate IBD (plasmacytic enteritis), two weeks conventional therapy, then 7 weeks 400 mg BID alone",Clinically normal
same,"clinical status, Dog #3","dogs with IBD; protein-losing enteropathy with IBD, 7 weeks 400 mg BID with intermittent metronidazole, no prednisone",clinically normal
same,"clinical status in first 30 days, Dog #6","dogs with IBD; severe IBD, conventional treatment withdrawn, 800 mg BID, first 30 days, owner report","playful, active and clinically normal"
same,"clinical status, Dog #1","dogs with IBD; severe lymphoplasmacytic enteritis, 6 weeks conventional therapy plus 800 mg BID, then 6 weeks 800 mg BID alone",became clinically normal
O=c1[nH]cnc2c1ncn2[C@@H]1O[C@@H]2COP(=O)(O)O[C@H]2[C@H]1O [Cyclic IMP],competition with cGMP binding at high concentration,[1],can partially compete
CC1=C(CC(=O)O)c2cc(F)ccc2/C1=C\c1ccc(S(C)(=O)=O)cc1 [exisulind],competition with cGMP in binding of GST-cGB-PDE5,"[1]; 3H-cGMP 2 μM, 22° C., 1 hour",None of the PDE5 inhibitors showed any competition with cGMP
"Nc1nc2c(ncn2[C@@H]2O[C@@H]3COP(=O)(O)O[C@H]3[C@H]2O)c(=O)[nH]1 [cGMP, cyclic 3′,5′-guanosine monophosphate]",binding to the cGMP binding sites of GST-cGB-PDE5 / PDE5,[1],specifically bound
same,Kd,"[1]; read-out: Kd of cGMP binding to GST-cGB-PDE5, two cGMP binding sites",1600 ± 200 nM
same,Kd,native bovine PDE5,1300 nM
"CSc1ccc(/C=C2/C(C)=C(CC(=O)O)c3cc(F)ccc32)cc1 [Sulindac sulfide, sulindac sulfide]",competition with cGMP in binding of GST-cGB-PDE5,"[1]; 3H-cGMP 2 μM, 22° C., 1 hour",None of the PDE5 inhibitors showed any competition with cGMP
"Nc1nc2c(nc(Br)n2[C@@H]2O[C@@H]3COP(=O)(O)O[C@H]3[C@H]2O)c(=O)[nH]1 [Example 8-bromo-cGMP, 8-bromo-cGMP]",competition with cGMP binding at high concentration,[1],can partially compete
O=c1ccn([C@@H]2O[C@@H]3COP(=O)(O)O[C@H]3[C@H]2O)c(=O)[nH]1 [cUMP],competition with cGMP in binding of GST-cGB-PDE5,"[1]; 3H-cGMP 2 μM, 22° C., 1 hour",did not compete
